In patent publication US6623953B1, “Enzymatic composition and method for seasoning wood” (ETS. Robert Stiernon S.A., priority 1998, dated 2003):

System: phenol heterosidase activity of the enzymatic preparation
Experiment: Inhibition of the phenol heterosidase activity by phenol compounds
Assay type: biochemical
Conditions: concentration 1 g/l
Method: The measurement of phenol heterosidase enzymatic activity PeH is based on the release of carboxylic functions which lower the pH of the reaction medium. 9 mg of an aqueous extract of green oak are added, in a test tube, to 9 ml of a 0.1 M NaCl solution, pH 4.5, containing 1% of enzymatic preparation EP. A control tube is prepared under the same conditions, without enzymes. The pH is measured in the two tubes at time 0 (pHc0 for the control and pHe0 for the enzyme) and after 4 hours of incubation at 25° C. (pHc4 and pHe4, respectively). The optimum conditions were established beforehand and there is perfect correlation between the release of glucose and the drop in pH.
The phenol heterosidase activity is calculated from the equation:
PeH=[(pHc0−pHc4)−(pHe0−pHe4)/4]×100 (PeH being expressed in 10^−3 units of pH/ml/h)
In general, all the heteroside substrates are used by the enzymatic activities present. Only the condensed tannins from grape show inhibition of the phenol heterosidase activity.

For `O=C1OCC2OC(=O)c3cc(O)c(O)c(O)c3-c3c(O)c(O)c(O)c4c3C(=O)OC(C2OC(=O)c2cc(O)c(O)c(O)c2-c2c1cc(O)c(O)c2O)C1OC(=O)c2c-4c(O)c(O)c(O)c2C1O` (stereo not shown) [vescalagin, Vescalagin], the “PeH in presence of phenol compound” value was 100 10^−3 pH/ml/h.
